Holding throughout (type): biochemical
For assay [1], the target named is T1, PI3K α (Homo sapiens, UniProt P42336).
T1 construct: purchased Millipore 14-602
The experiment in a line: Inhibitory activity to PI3K α, PI 3-Kinase (human) HTRF Assay kit. The note with it: read-out: % Inhibition Rate to PI3K α. The source says:
(§1) Study on the inhibitory activity of the compounds of present invention to PI 3κα, PI3κδ and PI3κγ. Two or three concentrations of the compounds are selected to preliminary screening to calculate respectively the activity inhibition rate of the compounds of corresponding concentrations to enzyme, then the compounds with better activity are selected by preliminary screening for IC50 test.
(§2) PI 3-Kinase (human) HTRF™ Assay kit (Cat.33-017, Millipore)
PI 3k α (Cat.14-602, Millipore)
(§3) 4× Reaction Buffer (Cat.33-002, Millipore) is diluted with ddH2O to 1.33×, and 1M DTT is added to make the final concentration as 6.67 mM. For example, 10 μL DTT is added into 500 μL 4× Reaction Buffer, and water is added to 1.5 mL.
(§4) The Test compounds are dissolved with DMSO to 1 mM as storage liquid. 2 μL of each of storage liquid is added into 48 μL ddH2O, to obtain the 40 μM compounds solution containing 4% DMSO. After mixing, 3 μL of each of the solution is added into 27 μL 4% DMSO (in ddH2O) to obtain the 4 μM compounds solution. 5 μL of each dilute solution is added into 384-well plates, then the final concentration of the compounds in the 20 μL final kinase reaction system is 10 μM and 1 μM respectively contained 1% DMSO. The dilution methods of compounds are similar to the preliminary screening in IC50 test.
(§5) 2×PIP2 working fluid is prepared with 1.33× reaction buffer to the final concentration of 20 μM.
The screening concentration of PI 3k α kinase: 8 ng/well,
(§6) Kinase is diluted with 2×PIP2 operating fluid, the concentration of kinase operating fluid is 2 times of screening concentration.
(§7) 10 mM ATP is diluted with 1.33× reaction buffer to 400 μM. The concentration of ATP is 100 μM in 20 μL kinase reaction system.
(§8) Stop A and Stop B are mixed according to the proportion of 3:1, and are placed for 2 hours at room temperature to obtain the stop solution available.
(§9) DM C, DM A and DM B are mixed according to the proportion of 18:1:1, and are placed for 2 hours at room temperature to obtain the detection solution available.
(Time-resolved FRET reads energy transfer from a long-lived donor to a nearby acceptor.)

Assay [2] addresses T2, PI3Kδ (Homo sapiens, UniProt O00329).
T2 construct: purchased Millipore 14-604
Kind of assay: Inhibitory activity to PI3K δ, PI 3-Kinase (human) HTRF Assay kit. The note with it: read-out: Inhibition rate % to PI3Kδ; for inhibition at 1 µM: 1 μM (Table 7); for inhibition at 10 µM: 10 μM (Table 7). On the procedure:
Study on the inhibitory activity of the compounds of present invention to PI 3κα, PI3κδ and PI3κγ.
as §2
For example, 10 μL DTT is added into 500 μL 4× Reaction Buffer, and water is added to 1.5 mL.
The Test compounds are dissolved with DMSO to 1 mM as storage liquid. 2 μL of each of storage liquid is added into 48 μL ddH2O, to obtain the 40 μM compounds solution containing 4% DMSO. After mixing, 3 μL of each of the solution is added into 27 μL 4% DMSO (in ddH2O) to obtain the 4 μM compounds solution. […]
The screening concentration of PI 3k δ kinase: 2 ng/well,
as §6
The concentration of ATP is 100 μM in 20 μL kinase reaction system.
as §8, §9

In assay [3] the target is T3, PDGFR β enzyme (Homo sapiens, UniProt P09619).
T3 construct: purchased Invitrogen P3082
Kind of assay: Inhibitory activity to PDGFR β enzyme, HTRF kinEASE TK kit. The note with it: read-out: Inhibition rate % (PDGFR β). On the procedure: HTRF kinEASE TK (Cat.62TK0PEC, Cisbio)
PDGFR β enzyme (Cat.P3082, Invitrogen)
1 mL 1×Kinase Buffer includes 200 μL 5×Enzyme buffer, 5 μL 1M MgCl2, 1 μL 1M DTT, 1 μL 1M MnCl2, 20 μL 2500 nM SEB, 773 μL ddH2O.
TK-Substrate and ATP are diluted to 2.5 times of reaction concentration with 1×PDGFR β Kinase Buffer.
5×PDGFR β enzyme working solution is prepared with 1×PDGFR β kinase buffer.
4×Sa-XL665 working solution is prepared with Detection Buffer.
TK-Ab-Cryptate is diluted 100 times with Detection Buffer to use as working solution.

Assay [4] has as its target T4, PI3 K γ (Homo sapiens, UniProt P48736).
T4 construct: purchased Biology, Medicilon
The experiment in a line: Inhibitory activity to PI3K γ, PI 3-Kinase (human) HTRF Assay kit. The following applies: read-out: Inhibition rate % to PI3 K γ.
From the text: as §1, §2
PI 3k γ (Biology, Medicilon)
as §3, §4, §5
The screening concentration of PI 3k γ kinase: 80 ng/well,
as §6, §7, §8, §9

SMILES strings stand for the structures.

A word on the inhibition: it is the change of the read-out against control, counted positive when it falls.

T3 sequence (P09619 33-1106): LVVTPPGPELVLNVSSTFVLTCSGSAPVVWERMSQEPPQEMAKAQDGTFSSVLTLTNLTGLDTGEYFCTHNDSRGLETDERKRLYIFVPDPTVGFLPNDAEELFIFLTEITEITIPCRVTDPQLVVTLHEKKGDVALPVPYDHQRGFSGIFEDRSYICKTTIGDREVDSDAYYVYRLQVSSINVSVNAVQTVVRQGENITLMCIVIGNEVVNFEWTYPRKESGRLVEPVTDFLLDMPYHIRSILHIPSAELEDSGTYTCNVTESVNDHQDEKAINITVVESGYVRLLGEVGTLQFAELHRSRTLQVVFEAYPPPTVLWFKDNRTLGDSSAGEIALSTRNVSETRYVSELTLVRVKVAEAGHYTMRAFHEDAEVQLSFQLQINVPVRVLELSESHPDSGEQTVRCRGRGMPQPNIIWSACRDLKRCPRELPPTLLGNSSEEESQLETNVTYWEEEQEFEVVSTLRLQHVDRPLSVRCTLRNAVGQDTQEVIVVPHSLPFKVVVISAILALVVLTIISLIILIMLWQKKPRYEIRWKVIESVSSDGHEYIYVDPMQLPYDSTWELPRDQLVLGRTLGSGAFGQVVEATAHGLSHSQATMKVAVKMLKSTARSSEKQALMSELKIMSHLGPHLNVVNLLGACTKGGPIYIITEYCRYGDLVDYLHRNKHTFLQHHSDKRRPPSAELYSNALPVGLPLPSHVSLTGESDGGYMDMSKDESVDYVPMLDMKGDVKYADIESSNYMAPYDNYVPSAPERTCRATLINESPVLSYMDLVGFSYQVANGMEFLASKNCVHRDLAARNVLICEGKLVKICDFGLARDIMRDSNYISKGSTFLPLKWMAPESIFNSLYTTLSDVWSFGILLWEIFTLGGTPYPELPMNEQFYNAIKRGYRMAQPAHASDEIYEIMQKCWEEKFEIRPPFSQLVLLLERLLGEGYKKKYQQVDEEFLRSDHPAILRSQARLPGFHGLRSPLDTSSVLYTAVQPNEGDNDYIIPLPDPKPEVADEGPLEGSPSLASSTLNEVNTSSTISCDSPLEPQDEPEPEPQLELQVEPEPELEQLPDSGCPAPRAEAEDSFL
T2 sequence (O00329 whole entry): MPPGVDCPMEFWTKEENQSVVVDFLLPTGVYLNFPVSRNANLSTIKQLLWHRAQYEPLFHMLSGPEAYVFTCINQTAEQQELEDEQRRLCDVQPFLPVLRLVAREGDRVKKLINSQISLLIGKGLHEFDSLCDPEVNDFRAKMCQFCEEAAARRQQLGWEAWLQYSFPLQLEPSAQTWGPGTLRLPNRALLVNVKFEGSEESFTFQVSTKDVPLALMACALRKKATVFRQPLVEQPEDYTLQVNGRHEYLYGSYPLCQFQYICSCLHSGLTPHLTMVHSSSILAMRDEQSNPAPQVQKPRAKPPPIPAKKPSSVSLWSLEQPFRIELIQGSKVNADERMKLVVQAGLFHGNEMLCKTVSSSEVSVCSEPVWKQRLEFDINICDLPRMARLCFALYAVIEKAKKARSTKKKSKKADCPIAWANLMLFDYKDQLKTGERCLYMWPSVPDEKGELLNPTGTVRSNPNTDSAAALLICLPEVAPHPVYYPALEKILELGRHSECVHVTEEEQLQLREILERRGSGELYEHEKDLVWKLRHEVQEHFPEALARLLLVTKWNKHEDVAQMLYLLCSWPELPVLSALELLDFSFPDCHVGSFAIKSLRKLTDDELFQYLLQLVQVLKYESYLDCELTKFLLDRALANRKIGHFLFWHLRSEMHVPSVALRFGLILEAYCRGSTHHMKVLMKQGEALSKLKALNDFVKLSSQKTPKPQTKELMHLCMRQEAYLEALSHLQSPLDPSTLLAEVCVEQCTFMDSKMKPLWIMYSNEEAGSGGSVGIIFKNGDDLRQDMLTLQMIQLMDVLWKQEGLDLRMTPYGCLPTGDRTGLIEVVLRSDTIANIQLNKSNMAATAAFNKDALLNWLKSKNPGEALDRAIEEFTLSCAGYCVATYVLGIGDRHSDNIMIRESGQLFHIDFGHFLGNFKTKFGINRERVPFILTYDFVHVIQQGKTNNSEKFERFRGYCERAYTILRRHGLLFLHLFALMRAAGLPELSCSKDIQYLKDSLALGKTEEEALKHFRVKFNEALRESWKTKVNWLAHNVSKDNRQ
T2 sequence (P27986 whole entry partner): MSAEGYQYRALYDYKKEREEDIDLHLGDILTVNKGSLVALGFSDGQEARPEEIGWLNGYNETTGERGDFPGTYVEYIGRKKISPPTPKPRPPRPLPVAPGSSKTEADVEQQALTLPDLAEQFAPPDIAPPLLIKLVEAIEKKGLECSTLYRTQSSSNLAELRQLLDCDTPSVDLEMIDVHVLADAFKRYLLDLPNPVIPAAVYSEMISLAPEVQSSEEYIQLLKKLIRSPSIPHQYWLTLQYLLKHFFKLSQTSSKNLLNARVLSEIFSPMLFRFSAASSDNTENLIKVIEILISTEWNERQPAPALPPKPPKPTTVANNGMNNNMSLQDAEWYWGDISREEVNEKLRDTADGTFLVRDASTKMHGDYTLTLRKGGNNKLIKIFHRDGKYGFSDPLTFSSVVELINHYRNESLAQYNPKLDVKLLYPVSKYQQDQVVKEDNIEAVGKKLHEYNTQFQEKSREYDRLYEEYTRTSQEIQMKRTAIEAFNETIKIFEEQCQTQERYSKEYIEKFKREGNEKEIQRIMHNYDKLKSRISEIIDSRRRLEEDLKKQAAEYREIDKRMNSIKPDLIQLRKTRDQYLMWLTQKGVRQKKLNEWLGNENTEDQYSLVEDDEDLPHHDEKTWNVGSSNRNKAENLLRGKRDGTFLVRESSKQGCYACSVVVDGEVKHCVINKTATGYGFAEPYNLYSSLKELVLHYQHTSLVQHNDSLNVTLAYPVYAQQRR
T1 sequence (P42336 whole entry): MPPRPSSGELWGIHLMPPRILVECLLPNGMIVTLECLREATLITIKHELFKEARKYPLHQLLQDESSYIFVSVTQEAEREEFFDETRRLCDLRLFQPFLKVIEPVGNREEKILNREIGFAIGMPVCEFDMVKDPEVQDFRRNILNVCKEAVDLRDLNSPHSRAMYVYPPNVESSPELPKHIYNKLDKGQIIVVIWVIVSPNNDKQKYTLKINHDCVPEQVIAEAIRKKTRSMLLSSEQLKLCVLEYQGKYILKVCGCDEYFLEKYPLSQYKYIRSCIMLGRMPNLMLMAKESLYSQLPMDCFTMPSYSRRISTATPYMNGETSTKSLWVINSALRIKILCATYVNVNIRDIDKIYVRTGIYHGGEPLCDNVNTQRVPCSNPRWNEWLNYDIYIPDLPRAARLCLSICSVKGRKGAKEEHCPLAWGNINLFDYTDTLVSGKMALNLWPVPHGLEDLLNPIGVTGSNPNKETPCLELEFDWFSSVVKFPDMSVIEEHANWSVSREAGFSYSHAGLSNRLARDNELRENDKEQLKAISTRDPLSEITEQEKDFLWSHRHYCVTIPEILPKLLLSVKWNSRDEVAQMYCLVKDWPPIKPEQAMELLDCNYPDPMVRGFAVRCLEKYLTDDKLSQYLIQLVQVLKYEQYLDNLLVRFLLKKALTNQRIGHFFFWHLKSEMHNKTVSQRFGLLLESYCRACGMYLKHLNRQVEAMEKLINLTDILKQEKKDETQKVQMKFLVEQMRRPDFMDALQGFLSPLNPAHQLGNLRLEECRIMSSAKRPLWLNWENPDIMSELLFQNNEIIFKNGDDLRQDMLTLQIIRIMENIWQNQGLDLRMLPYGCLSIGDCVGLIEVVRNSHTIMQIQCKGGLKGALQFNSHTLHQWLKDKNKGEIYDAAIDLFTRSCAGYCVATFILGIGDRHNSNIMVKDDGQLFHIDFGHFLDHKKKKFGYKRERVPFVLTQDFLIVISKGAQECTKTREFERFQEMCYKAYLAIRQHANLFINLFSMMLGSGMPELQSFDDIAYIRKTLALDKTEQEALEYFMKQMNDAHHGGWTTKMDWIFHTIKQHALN
T1 sequence (P27986 whole entry partner): as the sequence (P27986 whole entry partner) above
T4 sequence (P48736 whole entry): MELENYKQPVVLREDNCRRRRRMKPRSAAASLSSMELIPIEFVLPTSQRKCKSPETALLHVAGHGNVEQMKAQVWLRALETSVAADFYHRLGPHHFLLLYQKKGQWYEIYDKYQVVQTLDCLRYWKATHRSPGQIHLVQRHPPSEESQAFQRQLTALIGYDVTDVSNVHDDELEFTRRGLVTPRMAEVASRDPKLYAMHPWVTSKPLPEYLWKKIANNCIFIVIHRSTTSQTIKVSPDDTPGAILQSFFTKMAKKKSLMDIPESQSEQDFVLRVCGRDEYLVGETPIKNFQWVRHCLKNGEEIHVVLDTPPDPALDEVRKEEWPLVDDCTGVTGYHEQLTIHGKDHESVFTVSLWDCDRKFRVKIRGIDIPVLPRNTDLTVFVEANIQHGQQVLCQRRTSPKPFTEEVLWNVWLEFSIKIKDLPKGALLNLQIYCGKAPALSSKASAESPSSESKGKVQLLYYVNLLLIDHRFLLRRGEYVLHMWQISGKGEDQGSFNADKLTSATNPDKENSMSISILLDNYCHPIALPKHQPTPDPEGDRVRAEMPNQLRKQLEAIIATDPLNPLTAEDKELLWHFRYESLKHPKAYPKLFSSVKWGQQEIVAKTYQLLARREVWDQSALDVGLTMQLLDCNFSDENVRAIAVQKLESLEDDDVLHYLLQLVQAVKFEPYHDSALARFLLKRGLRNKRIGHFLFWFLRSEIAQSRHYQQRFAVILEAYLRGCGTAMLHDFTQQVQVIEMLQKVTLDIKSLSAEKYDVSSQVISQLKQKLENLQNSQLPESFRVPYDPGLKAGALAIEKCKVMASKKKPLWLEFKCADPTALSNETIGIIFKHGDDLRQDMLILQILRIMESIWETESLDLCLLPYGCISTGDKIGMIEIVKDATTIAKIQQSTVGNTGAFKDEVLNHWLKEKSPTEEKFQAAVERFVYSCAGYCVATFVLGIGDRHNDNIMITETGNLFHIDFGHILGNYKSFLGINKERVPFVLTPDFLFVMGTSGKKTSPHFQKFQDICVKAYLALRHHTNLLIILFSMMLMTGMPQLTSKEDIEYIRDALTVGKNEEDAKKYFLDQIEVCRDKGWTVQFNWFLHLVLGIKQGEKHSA

As for `OCCCNc1nc(Nc2ccc3nccc(-c4ccccc4)c3c2)nc2[nH]cnc12` [MED1007-73, 3-(2-(4-phenylquinoline-6-ylamino)-9H-purine-6-ylamino) propyl-1-ol], the inhibition at 1 µM amounted to 29.7% in assay [1], 6.41% in assay [2], 17% in assay [3] and 5.49% in assay [4]. Moreover, the inhibition at 10 µM in assay [1] was determined as 66.1%; in assay [2], 66.5%; in assay [3] it was 35%; in assay [4] it was 28.4%.
With `c1ccc(-c2ccnc3ccc(Nc4nc(NC5CCC5)c5nc[nH]c5n4)cc23)cc1` [MED1007-75, N6-cyclobutyl-N2-(4-phenylquinoline-6-yl)-9H-purine-2,6-diamine], the inhibition at 1 µM in assay [1] worked out at 11.1%; in assay [2] it was 10.9%; in assay [3] it was 13.2%; in assay [4], 6.93%. The inhibition at 10 µM in assay [1] was 51.3%; in assay [2], 42.6%; in assay [3], 8.74%; in assay [4] it was 10.9%.
In the case of `CCOc1cccc(-c2ccnc3ccc(Nc4nc(NC5CC5)c5nc[nH]c5n4)cc23)c1` [MED1007-83, N6-cyclopropyl-N2-(4-(3-ethoxyphenyl)quinoline-6-yl)-9H-purine-2,6-diamine], the inhibition at 1 µM was determined as 36.2% in assay [1], 22.7% in assay [2], 4.5% in assay [3] and 5.93% in assay [4]. The inhibition at 10 µM in assay [1] worked out at 87.6%; in assay [2], 68.5%; in assay [3], 7.6%; in assay [4] it was 24%.
On to `COc1ccc(-c2ccnc3ccc(Nc4nc(NC5CC5)c5nc[nH]c5n4)cc23)cc1OC` [MED1007-84, N6-cyclopropyl-N2-(4-(3,4-dimethoxyphenyl)quinoline-6-yl)-9H-purine-2,6-diamine], for which the inhibition at 1 µM in assay [1] was 58.7%; in assay [2] it was 71.8%; in assay [3] it was -8.59%; in assay [4], 26.6%. The inhibition at 10 µM in assay [1] came to 99.2%; in assay [2] it was 101%; in assay [3] it was 13.4%; in assay [4] it was 34.2%.
Regarding `c1cc(-c2ccc3c(c2)OCO3)c2cc(Nc3nc(NC4CC4)c4nc[nH]c4n3)ccc2n1` [MED1007-85, N2-(4-(benzo[1,3]-dioxole-5-yl)quinoline-6-yl)-N6-cyclopropane-9H-purine-2,6-diamine], the inhibition at 1 µM in assay [1] is 66.2%; in assay [2] it was 54.1%; in assay [3], -3.44%; in assay [4] it was 16.8%. The inhibition at 10 µM in assay [1] worked out at 90.1%; in assay [2], 113%; in assay [3], 29.8%; in assay [4], 41.9%.
In the case of `COc1ccccc1-c1ccnc2ccc(Nc3nc(NC4CC4)c4nc[nH]c4n3)cc12` [MED1007-86, N6-cyclopropyl-N2-(4-(2-methoxyphenyl)quinoline-6-yl)-9H-purine-2,6-diamine], the inhibition at 1 µM is 19.2% in assay [1], 27.3% in assay [2], -5.49% in assay [3] and 8.35% in assay [4]. The inhibition at 10 µM in assay [1] is 39.6%; in assay [2], 66.4%; in assay [3], -3.13%; in assay [4] it was 23.1%.
In the case of `CSc1ccccc1-c1ccnc2ccc(Nc3nc(NC4CC4)c4nc[nH]c4n3)cc12` [MED1007-87, N6-cyclopropyl-N2-(4-(2-(methylthio)phenyl)quinoline-6-yl)-9H-purine-2,6-diamine], the inhibition at 1 µM in assay [1] was 13.8%; in assay [2] it was 23%; in assay [3] it was -7.6%; in assay [4], -3.76%. Also, the inhibition at 10 µM in assay [1] is 60.6%; in assay [2], 80%; in assay [3], -4.13%; in assay [4], 29.5%.
For `CSc1cccc(-c2ccnc3ccc(Nc4nc(NC5CC5)c5nc[nH]c5n4)cc23)c1` [MED1007-88, N6-cyclopropyl-N2-(4-(3-(methylthio)phenyl)quinoline-6-yl)-9H-purine-2,6-diamine], the inhibition at 1 µM in assay [1] is 46.2%; in assay [2], 31%; in assay [3] it was -5.37%; in assay [4], 7.02%. Also, the inhibition at 10 µM in assay [1] turned out to be 110%; in assay [2] it was 103%; in assay [3] it was 2.89%; in assay [4], 41.5%.
Turning to `c1cnc2ccc(Nc3nc(OC4CCC4)c4nc[nH]c4n3)cc2c1` [MED1007-97], the inhibition at 1 µM worked out at 56.3% in assay [1], 72.3% in assay [2], 98.4% in assay [3] and 74.7% in assay [4]. Also, the inhibition at 10 µM in assay [1] was found to be 114%; in assay [2], 88.5%; in assay [3], 99.5%; in assay [4], 77%.
`c1ccc(-c2ccnc3ccc(Nc4nc(OC5CCC5)c5nc[nH]c5n4)cc23)cc1` [MED1007-98]: the inhibition at 1 µM was 102% in assay [1], 71.1% in assay [2], 38.1% in assay [3] and 32.8% in assay [4]. The inhibition at 10 µM in assay [1] is 118%; in assay [2], 105%; in assay [3], 37.8%; in assay [4] it was 105%.
As to `c1ccc(-c2ccnc3ccc(Nc4nc(NCC5CCCC5)c5nc[nH]c5n4)cc23)cc1` [MED1007-99, N6-(cyclopentylmethyl)-N2-(4-phenylquinoline-6-yl)-9H-purine-2,6-diamine], the inhibition at 1 µM came out at 23.3% in assay [1], 7.67% in assay [2], 33.1% in assay [3] and 4.68% in assay [4]. The inhibition at 10 µM in assay [1] was determined as 88.3%; in assay [2], 88.1%; in assay [3], 9.88%; in assay [4] it was 39.9%.
